Experimental data taken from the supplement of paper PMC3493320.

tested on: NCI-H295R; test: IC50 (antiproliferative, ATP content); details: 48 h
Summary of the method: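 Adrenocortical carcinoma cells (1500 per well) were seeded in serum-free ITS-supplemented DMEM in 1536-well plates and cultured overnight. Library compounds were then pin-transferred at 8 final concentrations from 0.6 nM to 46 µM, and plates were kept 48 h at 37 °C, 5% CO2. ATP was read as CellTiter-Glo luminescence after 20 min at room temperature and normalised to vehicle (0%) and positive control (100% inhibition). IC50 came from four-parameter logistic fits; compounds with no concentration response were recorded as above the top dose.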

SMILES | IC50
C[C@@H](CN(C)C)CN1c2ccccc2Sc2ccccc21.C[C@@H](CN(C)C)CN1c2ccccc2Sc2ccccc21.O=C(O)[C@@H](O)[C@@H](O)C(=O)O | > 46 µM
COc1cc(N)c(Cl)cc1C(=O)NC1CN2CCC1CC2.Cl (configuration not stated) | > 46 µM
CCCCNC(=O)NS(=O)(=O)c1ccc(N)cc1 | > 46 µM
Cc1nnc2n1-c1ccc(Cl)cc1C(c1ccccc1Cl)=NC2 | > 46 µM
CC(=O)[C@@]3(O)CC[C@H]4[C@@H]5/C=C(/Cl)\C2=C\C(=O)[C@@H]1C[C@@H]1[C@]2(C)[C@H]5CC[C@]34C | > 46 µM
O[C@H]1[C@@H]([C@H](O)CO)O[C@H]2[C@@H]1O[C@@H]([C@@](Cl)(Cl)Cl)O2 | > 46 µM
CCCCCCCCCCCCCCCCCCO | > 46 µM
S=C=S | > 46 µM
CN1[C@@H]2CC[C@H]1C[C@@H](OC(c1ccccc1)c1ccccc1)C2 | > 46 µM
Cc1cc2nc3c(=O)[nH]c(=O)nc-3n(C[C@H](O)[C@H](O)[C@H](O)CO)c2cc1C | > 46 µM
CN1CCC[C@@H]1Cc1c[nH]c2ccc(CCS(=O)(=O)c3ccccc3)cc12 | > 46 µM
Nc1nc(F)nc2c1ncn2[C@H]1O[C@@H](CO)[C@H](O)[C@H]1O | > 46 µM
CC(=O)N/N=C/c1ccc([N+](=O)[O-])o1 | > 46 µM
O=C(NCCCN1CCOCC1)c1ccc(Cl)cc1 | > 46 µM
[C@]13([C@@](C(=O)CO)(CC[C@H]1[C@@H]2CCC=4[C@@]([C@H]2[C@H](C3)O)(\C=C/C(C=4)=O)C)O)C | > 46 µM
CC(COc1ccccc1)N(CCCl)Cc1ccccc1 (configuration not stated) | > 46 µM
CN1C[C@@H](NS(=O)(=O)N(C)C)C[C@@H]2c3cccc4c3c(cn4C)C[C@H]21 | > 46 µM
Cc1cc(C)c(C=C2C(=O)Nc3ccccc32)[nH]1 | > 46 µM
O=C(CS(=O)Cc1ccco1)NC/C=C\COc1cc(CN2CCCCC2)ccn1 (configuration not stated) | > 46 µM
O=C(O)Cc1cccc2ccccc12 | > 46 µM
CC(C)(C)NCC(O)c1ccc(O)c(CO)n1.Cl (configuration not stated) | > 46 µM

SMILES | IC50
Cc1c(NC(=O)c2cccnc2)c(=O)n(-c2ccccc2)n1C | > 46 µM
Cc1cccc(C)c1NC1=NCCCS1 | > 46 µM
CCCCNc1ccc(C(=O)OCCOCCOCCOCCOCCOCCOCCOCCOCCOC)cc1 | > 46 µM
Nc1ccc(S(=O)(=O)c2ccc(N)cc2)cc1 | > 46 µM
CC(C)(C)C(=O)OCOC(=O)[C@@H]1N2C(=O)[C@@H](/N=C/N3CCCCCC3)[C@H]2SC1(C)C.Cl | > 46 µM
Oc1ccc(C2CNCCc3c2cc(O)c(O)c3Cl)cc1 (configuration not stated) | > 46 µM
CNC(=O)Oc1cccc2ccccc12 | > 46 µM
OCC(CO)N[C@H]1C[C@](O)(CO)[C@@H](O)[C@H](O)[C@H]1O | > 46 µM
NS(=O)(=O)c1cc2c(cc1Cl)N=C(CSCc1ccccc1)NS2(=O)=O | > 46 µM
CCCCCCCCCCCCCCCCCC(=O)O | > 46 µM
Cc1[nH]c(=O)c(C#N)cc1-c1ccncc1 | > 46 µM
CC1(C)O[C@@H]2CC3C4C[C@H](F)C5=CC(=O)C=C[C@]5(C)C4[C@@H](O)C[C@]3(C)[C@]2(C(=O)CO)O1 (some centres not stated) | > 46 µM
CS(=O)(=O)O.N=C(N)Nc1ccc(C(=O)Oc2ccc3cc(C(=N)N)ccc3c2)cc1 | > 46 µM
Cc1nc(NS(=O)(=O)c2ccc(N)cc2)nc(C)c1Br | > 46 µM
O=C/C=C/c1ccccc1 | > 46 µM
CC(C)(Oc1ccc(CCNC(=O)c2ccc(Cl)cc2)cc1)C(=O)O | > 46 µM
CC/C=C\C/C=C\C/C=C\CCCCCCCC(=O)O | > 46 µM
CCN(CCCCOC(=O)c1ccc(OC)c(OC)c1)C(C)Cc1ccc(OC)cc1.Cl (configuration not stated) | > 46 µM
Oc1ccc(OCc2ccccc2)cc1 | > 46 µM
O=C([O-])[C@H](O)[C@@H](O)[C@H](O)[C@H](O)CO.O=C([O-])[C@H](O)[C@@H](O)[C@H](O)[C@H](O)CO.[Ba+2] | > 46 µM
O=C(CCCN1CCN(c2ccccn2)CC1)c1ccc(F)cc1 | > 46 µM
